Assay results taken from patent publication US7786054B2, “Biocide for well stimulation and treatment fluids” (Kemira Chemicals, Inc., priority 2006, dated 2010).
Entries after “also recorded” stand apart in the source; their conditions may differ.

Key:
[1] = system: sulfate reducing bacteria (SRB); assay: Biocidal effectiveness on sulfate reducing bacteria in spiked frac pond water, serial dilution counts over 180 days with challenges; assay type: cell-based; conditions: for control of SRB in frac pond water (summary in words): up to 180 days contact time, challenges at 14, 28 and 129 days
Procedure: (§1) In this example, the biocidal effectiveness on sulfate reducing bacteria (SRB) and acid producing bacteria (AB) for biocide formulations containing CB Thione and WB Thione to Glut and THPS was examined.
(§2) A one gallon sample was separated from a five gallon sample of frac pond water for these studies. The frac pond water sample included SRB and AB. Ten mL of a 10^9 cfu/mL inoculum of SRB grown in anaerobic API broth containing an O2 scavenger and 10 mL of a 10^9 cfu/mL inoculum of AB grown in anaerobic phenol red (anPR) broth containing an O2 scavenger were added to the one gallon frac pond water sample, mixed well and allowed to incubate for a period of time sufficient to achieve a desired number of SRB and AB. All broth media for inoculum and serial dilution counts in this study was made at 4% salinity to match the salinity of the original frac pond water measured by total dissolved solids testing. To increase nutrient value and to emulate on-site friction reducing additives, a 30 weight % acrylic acid, 70% acrylamide copolymer was added to the inoculated gallon of frac pond water sample at 300 ppm and then referred to as the spiked frac pond water sample. The spiked sample was then divided into 99.0 g aliquots for testing the effect of various biocides at various concentrations on the SRB and AB over a 180 day contact time. One spiked aliquot would serve as the control sample to which no biocide would be added. Challenges were made to all aliquots using 0.5 mL of 10^8 SRB and 0.5 mL, of 10^8 AB at 14, 28, and 129 days contact time.
(§3) The biocides included a 20% water based Thione (WB Thione), a 24% caustic based Thione (CB Thione), a 25% Glut, and a 35% THPS. Stock biocide solutions of various concentrations were made from these biocides as described below.
(§4) The WB Thione stock solutions were prepared by adding 3.0 g of the biocide to 17.0 g of sterile distilled water to form an intermediate solution, followed by combining each intermediate solution with water in the accounts shown in Table 1 below to make the descending concentrations as shown in Table 1.
as §4, with “The CB” for “The WB”, “the amounts” for “the accounts”, “Table 2” for “Table 1”, “Table 2.” for “Table 1.”
(§5) The Glut stock solutions were prepared by adding 1.0 g biocide to 19.0 g of sterile distilled water to form an intermediate solution, followed by combining each intermediate solution with water in the amounts shown in Table 3 below to make the descending concentrations as shown in Table 3.
(§6) The THPS stock solutions were prepared by adding 1.0 g of the biocide to 19.0 g of sterile distilled water to form an intermediate solution, followed by combining each intermediate solution with water in the amounts shown in Table 4 below to make the descending concentrations as shown in Table 4.
(§7) Next, 1 g of each biocide stock solution was added to the appropriately labeled 99.0 g aliquot. Also, 1.0 g of sterile water was added to the control aliquot. The concentrations of the biocides present in each aliquot are provided below in Table 5.
(§8) The aliquots were then incubated at room temperature in the dark for the entire study, i.e., 6 months. […] Using sterile syringes, this testing was performed by serial diluting the aliquots into sealed 9.0 mL anaerobic API broth and anaerobic PR broth bottles, both media containing an O2 scavenger, in the appropriate labeled set of SRB bottles (6 for each aliquot) mid AB bottles (6 for each aliquot) until a color change occurred, indicating the log quantity of organisms present in each aliquot.

[2] = system: acid producing bacteria (AB); assay: Biocidal effectiveness on acid producing bacteria in spiked frac pond water, serial dilution counts over 180 days with challenges; assay type: cell-based; conditions: for control of AB in frac pond water (summary in words): up to 180 days contact time, challenges at 14, 28 and 129 days
Procedure: as §1, §2, §3, §4
as §4, with “The CB” for “The WB”, “the amounts” for “the accounts”, “Table 2” for “Table 1”, “Table 2.” for “Table 1.”
as §5, §6, §7, §8

[3] = 500 ppm as is (Glut, THPS), 7 Days
[4] = 500 ppm as is (Glut, THPS), 14 Days
[5] = 500 ppm as is (Glut, THPS), 21 Days
[6] = 500 ppm as is (Glut, THPS), 28 Days
[7] = 500 ppm as is (Glut, THPS), 35 Days
[8] = 500 ppm as is (Glut, THPS), 42 Days
[9] = 500 ppm as is (Glut, THPS), 58 Days
[10] = 500 ppm as is (Glut, THPS), 90 Days

O=S(=O)([O-])[O-].OC[P+](CO)(CO)CO.OC[P+](CO)(CO)CO [THPS, tetra-kis-hydroxymethyly-phosphonium sulfate]
Log 10 Anaerobic Sulfate Reducing Bacteria/mL ([1]; 60 ppm as is (DA), 7 Days): ≧6 Log 10 Bacteria/mL | Log 10 Anaerobic Sulfate Reducing Bacteria/mL ([1]; 60 ppm as is (DA), 14 Days): ≧6 Log 10 Bacteria/mL | Log 10 Anaerobic Sulfate Reducing Bacteria/mL ([1]; 60 ppm as is (DA), 21 Days): ≧5 Log 10 Bacteria/mL | Log 10 Anaerobic Sulfate Reducing Bacteria/mL ([1]; 60 ppm as is (DA), 28 Days): ≧6 Log 10 Bacteria/mL | Log 10 Anaerobic Sulfate Reducing Bacteria/mL ([1]; 60 ppm as is (DA), 35 Days): ≧6 Log 10 Bacteria/mL | Log 10 Anaerobic Sulfate Reducing Bacteria/mL ([1]; 60 ppm as is (DA), 42 Days): ≧6 Log 10 Bacteria/mL | Log 10 Anaerobic Sulfate Reducing Bacteria/mL ([1]; 60 ppm as is (DA), 58 Days): ≧6 Log 10 Bacteria/mL | Log 10 Anaerobic Sulfate Reducing Bacteria/mL ([1]; 60 ppm as is (DA), 90 Days): ≧6 Log 10 Bacteria/mL | Log 10 Anaerobic Sulfate Reducing Bacteria/mL ([1]; 100 ppm as is, 7 Days): 5 Log 10 Bacteria/mL | Log 10 Anaerobic Sulfate Reducing Bacteria/mL ([1]; 100 ppm as is, 14 Days): 5 Log 10 Bacteria/mL | Log 10 Anaerobic Sulfate Reducing Bacteria/mL ([1]; 100 ppm as is, 21 Days): ≧5 Log 10 Bacteria/mL | Log 10 Anaerobic Sulfate Reducing Bacteria/mL ([1]; 100 ppm as is, 28 Days): ≧6 Log 10 Bacteria/mL | Log 10 Anaerobic Sulfate Reducing Bacteria/mL ([1]; 100 ppm as is, 35 Days): ≧6 Log 10 Bacteria/mL | Log 10 Anaerobic Sulfate Reducing Bacteria/mL ([1]; 100 ppm as is, 42 Days): ≧6 Log 10 Bacteria/mL | Log 10 Anaerobic Sulfate Reducing Bacteria/mL ([1]; 100 ppm as is, 58 Days): ≧6 Log 10 Bacteria/mL | Log 10 Anaerobic Sulfate Reducing Bacteria/mL ([1]; 100 ppm as is, 90 Days): ≧6 Log 10 Bacteria/mL | Log 10 Anaerobic Sulfate Reducing Bacteria/mL ([1]; 200 ppm as is, 7 Days): 0 Log 10 Bacteria/mL | Log 10 Anaerobic Sulfate Reducing Bacteria/mL ([1]; 200 ppm as is, 14 Days): 0 Log 10 Bacteria/mL | Log 10 Anaerobic Sulfate Reducing Bacteria/mL ([1]; 200 ppm as is, 21 Days): ≧6 Log 10 Bacteria/mL | Log 10 Anaerobic Sulfate Reducing Bacteria/mL ([1]; 200 ppm as is, 28 Days): ≧6 Log 10 Bacteria/mL | Log 10 Anaerobic Sulfate Reducing Bacteria/mL ([1]; 200 ppm as is, 35 Days): ≧6 Log 10 Bacteria/mL | Log 10 Anaerobic Sulfate Reducing Bacteria/mL ([1]; 200 ppm as is, 42 Days): ≧6 Log 10 Bacteria/mL | Log 10 Anaerobic Sulfate Reducing Bacteria/mL ([1]; 200 ppm as is, 58 Days): ≧6 Log 10 Bacteria/mL | Log 10 Anaerobic Sulfate Reducing Bacteria/mL ([1]; 200 ppm as is, 90 Days): ≧6 Log 10 Bacteria/mL | Log 10 Anaerobic Sulfate Reducing Bacteria/mL [1, 3]: 0 Log 10 Bacteria/mL | Log 10 Anaerobic Sulfate Reducing Bacteria/mL [1, 4]: 0 Log 10 Bacteria/mL | Log 10 Anaerobic Sulfate Reducing Bacteria/mL [1, 5]: 4 Log 10 Bacteria/mL | Log 10 Anaerobic Sulfate Reducing Bacteria/mL [1, 6]: 3 Log 10 Bacteria/mL | Log 10 Anaerobic Sulfate Reducing Bacteria/mL [1, 7]: 3 Log 10 Bacteria/mL | Log 10 Anaerobic Sulfate Reducing Bacteria/mL [1, 8]: ≧6 Log 10 Bacteria/mL | Log 10 Anaerobic Sulfate Reducing Bacteria/mL [1, 9]: ≧6 Log 10 Bacteria/mL | Log 10 Anaerobic Sulfate Reducing Bacteria/mL [1, 10]: ≧6 Log 10 Bacteria/mL | control of SRB in frac pond water (summary in words) [1]: lost all control of SRB and AB from 1 to 21 days contact time; also recorded: failed completely after challenging once at 14 days contact time at all concentrations | Log 10 Anaerobic Acid Producing Bacteria/mL ([2]; 50 ppm as is, 7 Days): 5 Log 10 Bacteria/mL | Log 10 Anaerobic Acid Producing Bacteria/mL ([2]; 50 ppm as is, 14 Days): ≧6 Log 10 Bacteria/mL | Log 10 Anaerobic Acid Producing Bacteria/mL ([2]; 50 ppm as is, 21 Days): ≧6 Log 10 Bacteria/mL | Log 10 Anaerobic Acid Producing Bacteria/mL ([2]; 50 ppm as is, 28 Days): ≧6 Log 10 Bacteria/mL | Log 10 Anaerobic Acid Producing Bacteria/mL ([2]; 50 ppm as is, 35 Days): ≧6 Log 10 Bacteria/mL | Log 10 Anaerobic Acid Producing Bacteria/mL ([2]; 50 ppm as is, 42 Days): ≧6 Log 10 Bacteria/mL | Log 10 Anaerobic Acid Producing Bacteria/mL ([2]; 50 ppm as is, 58 Days): ≧6 Log 10 Bacteria/mL | Log 10 Anaerobic Acid Producing Bacteria/mL ([2]; 50 ppm as is, 90 Days): ≧6 Log 10 Bacteria/mL | Log 10 Anaerobic Acid Producing Bacteria/mL ([2]; 100 ppm as is, 7 Days): 5 Log 10 Bacteria/mL | Log 10 Anaerobic Acid Producing Bacteria/mL ([2]; 100 ppm as is, 14 Days): 5 Log 10 Bacteria/mL | Log 10 Anaerobic Acid Producing Bacteria/mL ([2]; 100 ppm as is, 21 Days): ≧6 Log 10 Bacteria/mL | Log 10 Anaerobic Acid Producing Bacteria/mL ([2]; 100 ppm as is, 28 Days): ≧6 Log 10 Bacteria/mL | Log 10 Anaerobic Acid Producing Bacteria/mL ([2]; 100 ppm as is, 35 Days): ≧6 Log 10 Bacteria/mL | Log 10 Anaerobic Acid Producing Bacteria/mL ([2]; 100 ppm as is, 42 Days): ≧6 Log 10 Bacteria/mL | Log 10 Anaerobic Acid Producing Bacteria/mL ([2]; 100 ppm as is, 58 Days): ≧6 Log 10 Bacteria/mL | Log 10 Anaerobic Acid Producing Bacteria/mL ([2]; 100 ppm as is, 90 Days): ≧5 Log 10 Bacteria/mL | Log 10 Anaerobic Acid Producing Bacteria/mL ([2]; 200 ppm as is, 7 Days): 1 Log 10 Bacteria/mL | Log 10 Anaerobic Acid Producing Bacteria/mL ([2]; 200 ppm as is, 14 Days): 0 Log 10 Bacteria/mL | Log 10 Anaerobic Acid Producing Bacteria/mL ([2]; 200 ppm as is, 21 Days): ≧6 Log 10 Bacteria/mL | Log 10 Anaerobic Acid Producing Bacteria/mL ([2]; 200 ppm as is, 28 Days): ≧6 Log 10 Bacteria/mL | Log 10 Anaerobic Acid Producing Bacteria/mL ([2]; 200 ppm as is, 35 Days): ≧6 Log 10 Bacteria/mL | Log 10 Anaerobic Acid Producing Bacteria/mL ([2]; 200 ppm as is, 42 Days): ≧6 Log 10 Bacteria/mL | Log 10 Anaerobic Acid Producing Bacteria/mL ([2]; 200 ppm as is, 58 Days): ≧6 Log 10 Bacteria/mL | Log 10 Anaerobic Acid Producing Bacteria/mL ([2]; 200 ppm as is, 90 Days): ≧6 Log 10 Bacteria/mL | Log 10 Anaerobic Acid Producing Bacteria/mL [2, 3]: 0 Log 10 Bacteria/mL | Log 10 Anaerobic Acid Producing Bacteria/mL [2, 4]: 0 Log 10 Bacteria/mL | Log 10 Anaerobic Acid Producing Bacteria/mL [2, 5]: 4 Log 10 Bacteria/mL | Log 10 Anaerobic Acid Producing Bacteria/mL [2, 6]: 3 Log 10 Bacteria/mL | Log 10 Anaerobic Acid Producing Bacteria/mL [2, 7]: 4 Log 10 Bacteria/mL | Log 10 Anaerobic Acid Producing Bacteria/mL [2, 8]: 3 Log 10 Bacteria/mL | Log 10 Anaerobic Acid Producing Bacteria/mL [2, 9]: ≧6 Log 10 Bacteria/mL | Log 10 Anaerobic Acid Producing Bacteria/mL [2, 10]: ≧6 Log 10 Bacteria/mL | control of AB in frac pond water (summary in words) [2]: lost all control of SRB and AB from 1 to 21 days contact time; also recorded: failed after challenging once at 14 days contact time

CN1CSC(=S)N(C)C1 [Thione, 3,5-dimethyl-1,3,5-thiadiazinane-2-thione]
control of SRB in frac pond water (summary in words) [1]: much more effective at inhibiting SRB and AB growth in frac water than the Glut and THPS treatments; also recorded: exceptional control over both the short and long term for SRB through 3 substantial challenges | control of AB in frac pond water (summary in words) [2]: much more effective at inhibiting SRB and AB growth in frac water than the Glut and THPS treatments
